Measured values from patent US5856535A, “Aminosterol ester compounds” (priority 1996, dated 1999).
Values after ≈ are worked out from the molar mass of the structure shown. Read-outs that look alike come from different tables or passages of the source.

Experiments:
melanoma cells = test: MTT assay for cell number; format: cell-based; conditions: for minimal effective concentration: 48 h, Table II, read-out: Minimum Effective Concentration, MTT assay; for IC50: read-out: MTT assay IC50
Procedure: In Table V, several aminosterol esters show efficacy in killing melanoma cells in the MTT assay.
The MTT assay for cell number is performed as follows. Cells are counted on a hemocytometer and diluted to a concentration of approx. 10,000 cells/well (55,000 cells/ml×0.18 ml). Cells are then plated in a 96 well microtiter plate and allowed to attach overnight. The next day, compounds are serially diluted from 1000 to 15.6 μg/ml and run in duplicate. 20 μl of each dilution are transferred to the pre-seeded microtiter plates. The final concentrations are 100 to 1.56 μg/ml. The plates are then incubated for 48 hours at 37° C. in 5% CO2. After 48 hours, MTT solution is added. The plate is re-incubated for 4 hours. Readings are done by removing all but 30 μl of media and MTT solution and dissolving the formazan crystals with DMSO. The formazan is dissolved by mixing on a rotating plate at low speed for about 30 minutes. Absorbance of converted dye is measured at a wavelength of 560 nm with background subtraction at 630 nm. The percent survival is determined by a comparison between the mean absorbance of the duplicate test lanes and the growth control.

[1] = inhibition of MSI-1436 binding; conditions: 3H-MSI-1436 at 20 μg/mL
splenocytes = test: mitogen proliferation assay (splenocytes of treated mice, Con A); format: in vivo; conditions: for Rel. potency to MSI-1436, Mitogen Proliferation Assay: 10 mg/kg iv
Procedure: For the attached Tables, the mitogen proliferation assay was performed by treating mice (male or female) with various amounts of the aminosterol test compounds. Some time later (typically between 2 hours and 14 days), the mice are sacrificed and their spleens removed. Splenocytes are harvested and cultured in the presence of between 1-10 μg/ml of Con A (Sigma) for 48 hours. See James Morgan, "Monoclonal Antibody Production," Modern Methods in Pharmacology, pp. 29-67, eds., Spector and Back, 1988. This excerpt is entirely incorporated herein by reference. Cell proliferation is monitored either by direct cell counting or by measurement of the incorporation of radioactive thymidine.

[2] = tested on: chick embryo vitelline capillaries; test: chick embryo vitelline capillary regression assay; format: in vivo; design: key to Chick embryo vitelline capillary regression: +: Vascular reactivity; 0: No vascular reactivity; +/-: Equivocal reactivity; conditions: for Chick embryo vitelline capillary regression: 60 minutes; for effect on vitelline capillaries (in words): 3- to 5-day chick embryo
Procedure: Using the chick embryo vitelline capillaries assay, various aminosterol compounds were tested for their ability to induce capillary regression. Each compound was applied in 0.1 ml of 15% Ficol 400 and PBS onto the embryo, and vascular regression was assessed after 60 minutes. These tests were conducted by the chorioallantoic membrane anti-angiogenesis assay by applying the material to be assayed to 3 day old fertilized chick embryos in the manner described by Wilks et al., "Inhibition of Angiogenesis With Combination Angiostatic Steroids and Suramin," Radiation Biology, Vol. 60, Nos. 1/2, 1991, pp. 73-77, which article is entirely incorporated herein by reference.
The 3-day chick embryo consists of an embryonic disc from which numerous vessels emerge and return, forming a "figure 8"-shaped structure--the embryo in the center with vascular loops extending outward over both poles. […] Following a lag period of around 15 minutes, the constriction of continuity between capillary and secondary vessels, generally on the "venous" side, was observed. Continued pulsatile blood flow progressed, resulting in a "swelling" of the blind tube, followed by a pinching off of the remaining connection and formation of an enclosed vascular sac resembling a "blood island." This process progressed until only the largest vessels remained intact.

[3] = tested on: Xenopus laevis Stages 59-60 tadpoles; test: tadpole assay; format: in vivo; conditions: 10 μg/ml where stated

CC(CCC(=O)O)[C@H]1CCC2C3CC[C@H]4C[C@@H](NCCCNCCCCN)CC[C@]4(C)C3CC[C@@]21C (stereo partly drawn)
minimal effective concentration (melanoma cells): 13.8 µg/mL

CC(CCC(=O)O)[C@H]1CCC2C3C(CC[C@@]21C)[C@@]1(C)CC[C@@H](NCCCNCCCCN)C[C@@H]1C[C@H]3O (stereo partly drawn)
minimal effective concentration (melanoma cells): 58.6 µg/mL

CC(CCC(=O)O)[C@H]1CCC2C3C[C@@H](O)[C@H]4C[C@@H](NCCCNCCCCNCCCN)CC[C@]4(C)C3CC[C@@]21C (stereo partly drawn)
% Inhib. of MSI-1436 Binding @ 100 μg/mL [1]: -69%
Rel. potency to MSI-1436, Mitogen Proliferation Assay (splenocytes): 0.22

COC(=O)CCC(C)[C@H]1CCC2C3C[C@@H](O)[C@H]4C[C@@H](NCCCNCCCCNCCCN)CC[C@]4(C)C3CC[C@@]21C (stereo partly drawn)
% Inhib. of MSI-1436 Binding @ 100 μg/mL [1]: 51%
MTT assay IC50 (melanoma cells; Tables III-V): 14 µg/mL
IC50 (melanoma cells; Tables III-V): 10 µg/mL (≈ 16.9 µM)
Rel. potency to MSI-1436, Mitogen Proliferation Assay (splenocytes): 0.43

COC(=O)CCC(C)[C@H]1CCC2C3C[C@@H](O)[C@H]4C[C@@H](NCCN)CC[C@]4(C)C3CC[C@@]21C (stereo partly drawn)
IC50 (melanoma cells; Tables III-V): 0.8 µg/mL (≈ 1.78 µM)

COC(=O)CCC(C)[C@H]1CCC2C3C[C@@H](O)[C@H]4C[C@H](NCCN)CC[C@]4(C)C3CC[C@@]21C (stereo partly drawn)
IC50 (melanoma cells; Tables III-V): 2.9 µg/mL (≈ 6.46 µM)

COC(=O)CCC(C)[C@H]1CCC2C3C(CC[C@@]21C)[C@@]1(C)CC[C@H](NCCN)C[C@H]1C[C@H]3O (stereo partly drawn)
IC50 (melanoma cells; Tables III-V): 5.3 µg/mL (≈ 11.8 µM)

COC(=O)CCC(C)[C@H]1CCC2C3C(CC[C@@]21C)[C@@]1(C)CC[C@@H](NCCCNCCCCNCCCN)C[C@@H]1C[C@H]3O (stereo partly drawn)
% Inhib. of MSI-1436 Binding @ 100 μg/mL [1]: 15%
IC50 (melanoma cells; Tables III-V): 7.8 µg/mL (≈ 13.2 µM)

COC(=O)CCC(C)[C@H]1CCC2C3C(CC[C@@]21C)[C@@]1(C)CC[C@H](NCCCNCCCCNCCCN)C[C@H]1C[C@H]3O (stereo partly drawn)
% Inhib. of MSI-1436 Binding @ 100 μg/mL [1]: 19%
IC50 (melanoma cells; Tables III-V): 7.9 µg/mL (≈ 13.4 µM)

COC(=O)CCC(C)[C@H]1CCC2C3C[C@@H](O)[C@H]4C[C@@H](NCCCNCCCCN)CC[C@]4(C)C3CC[C@@]21C (stereo partly drawn)
% Inhib. of MSI-1436 Binding @ 100 μg/mL [1]: 57%
IC50 (melanoma cells; Tables III-V): 12 µg/mL (≈ 22.5 µM)

CC(C)CCC[C@@H](C)[C@H]1CC[C@H]2[C@@H]3CC[C@H]4C[C@@H](NCCCNCCCCN)CC[C@]4(C)[C@H]3CC[C@]12C [Compound 303]
Chick embryo vitelline capillary regression ([2]; 1 μg applied): 0

C[C@H](CCC(=O)O)[C@H]1CC[C@H]2[C@@H]3CC[C@H]4C[C@H](NCCCNCCCCN)CC[C@]4(C)[C@H]3CC[C@]12C [Compound 318]
Chick embryo vitelline capillary regression ([2]; 1 μg applied): 0

C[C@H](CCC(=O)O)[C@H]1CC[C@H]2[C@@H]3CC[C@H]4C[C@@H](NCCCNCCCCN)CC[C@]4(C)[C@H]3CC[C@]12C [Compound 319]
Chick embryo vitelline capillary regression ([2]; 0.001 μg applied): +/-
Chick embryo vitelline capillary regression ([2]; 0.01 μg applied): +
Chick embryo vitelline capillary regression ([2]; 0.1 μg applied): +
Chick embryo vitelline capillary regression ([2]; 1 μg applied): +
Chick embryo vitelline capillary regression ([2]; 10 μg applied): +
effect on vitelline capillaries (in words) [2]: especially active
vascular effect in tadpole (in words) ([3]; about 60 minutes): common vascular occlusive effect

COC(=O)CC[C@@H](C)[C@H]1CC[C@H]2[C@@H]3[C@H](O)C[C@H]4C[C@@H](NCCCNCCCCNCCCN)CC[C@]4(C)[C@H]3CC[C@]12C [Compound 396]
Chick embryo vitelline capillary regression ([2]; 0.001 μg applied): 0
Chick embryo vitelline capillary regression ([2]; 0.01 μg applied): 0
Chick embryo vitelline capillary regression ([2]; 0.1 μg applied): 0

COC(=O)CC[C@@H](C)[C@H]1CC[C@H]2[C@@H]3[C@H](O)C[C@@H]4C[C@@H](NCCN)CC[C@]4(C)[C@H]3CC[C@]12C [Compound 409]
effect on embryonic epithelium / epithelial shedding (in words) [3]: functionally similar to compound 1437

C[C@H](CCC(=O)O)[C@H]1CC[C@H]2[C@@H]3[C@H](O)C[C@@H]4C[C@@H](NCCN)CC[C@]4(C)[C@H]3CC[C@]12C [Compound 415]
effect on vitelline capillaries (in words) [2]: especially active

COC(=O)CC[C@@H](C)[C@H]1CC[C@H]2[C@@H]3CC[C@@H]4C[C@H](NCCN)CC[C@]4(C)[C@H]3C[C@H](O)[C@]12C [Compound 416]
effect on embryonic epithelium / epithelial shedding (in words) [3]: functionally similar to compound 1437

COC(=O)CC[C@@H](C)[C@H]1CC[C@H]2[C@@H]3C[C@@H](O)[C@H]4C[C@H](NCCN)CC[C@]4(C)[C@H]3CC[C@]12C [Compound 431]
effect on embryonic epithelium / epithelial shedding (in words) [3]: functionally similar to compound 1437

COC(=O)CC[C@@H](C)[C@H]1CC[C@H]2[C@@H]3C[C@@H](O)[C@H]4C[C@@H](NCCN)CC[C@]4(C)[C@H]3CC[C@]12C [Compound 432]
effect on embryonic epithelium / epithelial shedding (in words) [3]: functionally similar to compound 1437

COC(=O)CC[C@@H](C)[C@H]1CC[C@H]2[C@@H]3C[C@@H](O)[C@H]4C[C@@H](NCCCN5CCN(CCCN)CC5)CC[C@]4(C)[C@H]3CC[C@]12C [Compound 469]
% Inhib. of MSI-1436 Binding @ 100 μg/mL [1]: 110%
IC50 (melanoma cells): 2 µg/mL (≈ 3.4 µM)
Rel. potency to MSI-1436, Mitogen Proliferation Assay (splenocytes): 1.6
potency in the mitogen proliferation assay (in words) (splenocytes; mouse, in vivo): higher potency in the mitogen proliferation assay than compound 1436

COC(=O)CCC(C)[C@H]1CCC2C3C(CC[C@@]21C)[C@@]1(C)CC[C@@H](NCCN)C[C@H]1C[C@H]3O (stereo partly drawn) [drawing 70]
minimal effective concentration (melanoma cells): 2.6 µg/mL

COC(=O)CCC(C)[C@H]1CCC2C3CC[C@H]4C[C@@H](NCCCNCCCCNCCCN)CC[C@]4(C)C3CC[C@@]21C (stereo partly drawn) [drawing 75]
minimal effective concentration (melanoma cells): 5 µg/mL

COC(=O)CCC(C)[C@H]1CCC2C3CC[C@H]4C[C@H](NCCCNCCCCNCCCN)CC[C@]4(C)C3CC[C@@]21C (stereo partly drawn) [drawing 84]
minimal effective concentration (melanoma cells): 6.8 µg/mL

CC(CCC(=O)O)[C@H]1CCC2C3C(CC[C@@]21C)[C@@]1(C)CC[C@H](NCCCNCCCCNCCCN)C[C@H]1C[C@H]3O (stereo partly drawn) [drawing 86]
minimal effective concentration (melanoma cells): 18.1 µg/mL

COC(=O)CCC(C)[C@H]1CCC2C3CC[C@@H]4C[C@H](NCCN)CC[C@]4(C)C3C[C@H](O)[C@@]21C (stereo partly drawn) [drawing 90]
minimal effective concentration (melanoma cells): 2.4 µg/mL

COC(=O)CCC(C)[C@H]1CCC2C3CC[C@H]4C[C@@H](NCCCNCCCCNCCCN)CC[C@]4(C)C3CC[C@@]21C (stereo partly drawn) [drawing 103]
% Inhib. of MSI-1436 Binding @ 100 μg/mL [1]: -24%
MTT assay IC50 (melanoma cells; Tables III-V): 4 µg/mL
IC50 (melanoma cells; Tables III-V): 5 µg/mL (≈ 8.7 µM)
Rel. potency to MSI-1436, Mitogen Proliferation Assay (splenocytes): 0.73

COC(=O)CCC(C)[C@H]1CCC2C3CC[C@@H]4C[C@H](NCCN)CC[C@]4(C)C3C[C@H](O)[C@@]21C (stereo partly drawn) [drawing 109]
IC50 (melanoma cells; Tables III-V): 2.4 µg/mL (≈ 5.35 µM)

COC(=O)CCC(C)[C@H]1CCC2C3C(CC[C@@]21C)[C@@]1(C)CC[C@H](NCCCNCCCCNCCCN)C[C@@H]1C[C@H]3O (stereo partly drawn) [drawing 115]
% Inhib. of MSI-1436 Binding @ 100 μg/mL [1]: 32%
IC50 (melanoma cells; Tables III-V): 8.1 µg/mL (≈ 13.7 µM)

COC(=O)CCC(C)[C@H]1CCC2C3C(CC[C@@]21C)[C@@]1(C)CC[C@@H](NCCCNCCCCN)C[C@H]1C[C@H]3O (stereo partly drawn) [drawing 116]
% Inhib. of MSI-1436 Binding @ 100 μg/mL [1]: 18%
IC50 (melanoma cells; Tables III-V): 12 µg/mL (≈ 22.5 µM)

COC(=O)CCC(C)[C@H]1CCC2C3CC[C@H]4C[C@H](NCCCNCCCCNCCCN)CC[C@]4(C)C3CC[C@@]21C (stereo partly drawn) [drawing 118]
% Inhib. of MSI-1436 Binding @ 100 μg/mL [1]: 49%
IC50 (melanoma cells; Tables III-V): 13 µg/mL (≈ 22.6 µM)
